Key:
CLL B cells = experiment: Cytotoxicity to CLL B cells in vitro; format: cell-based, human; conditions: compared to normal primary B cells
breast cancer lines = experiment: Combined cytotoxicity of TRA-8 with adriamycin; format: cell-based, human
MMP-1, 3, and 13 = experiment: ELISA of MMP production by RA synovial cells; format: cell-based, human; conditions: overnight; 50 ng/ml interleukin 1b, 10 ng/ml TNF-α, 50 ng/ml TRAIL, 50 ng/ml TRA-8
Experimental: Thus, it is possible that TRAIL, like TNF-α, may serve as a pro-inflammatory cytokine. […] The levels of the MMP-1 and MMP-3 in the culture supernatants are determined by the ELISA kits.

DR4 = molecular target: T1, DR4 (Homo sapiens, UniProt O00220); experiment: ELISA binding to immobilized DR4-Ig fusion protein
T1 construct: The soluble recombinant human DR4, DcR1, DcR2, TNFR1, R4, and Fas molecules used are human IgG1 fusion proteins; human IgG1 Fc
T1 sequence (O00220 24-239 limits assumed): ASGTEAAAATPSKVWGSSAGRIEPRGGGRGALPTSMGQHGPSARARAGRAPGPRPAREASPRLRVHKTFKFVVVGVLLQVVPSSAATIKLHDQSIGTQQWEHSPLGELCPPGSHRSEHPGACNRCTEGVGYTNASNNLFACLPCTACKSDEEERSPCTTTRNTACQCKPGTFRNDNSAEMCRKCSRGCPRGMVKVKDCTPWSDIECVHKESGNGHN
Experimental: ELISA plates are coated with 2 μg/ml of DR4-Ig or DR5-Ig fusion protein overnight. […] The reactions are developed by TMB substrate buffer and measured by the Benchmark Microplate Reader (BioRad). The Kd values are estimated by the one-site binding model of non-linear regression using GraphPad Prism® software (GraphPad Software, San Diego, Calif.).

OA synovial cells = experiment: Cell viability of primary cultured OA synovial cells; format: cell-based, human; conditions: OA72M
Text: (§1) Cell viability is the percentage of the cpm of treated cells versus the cpm of untreated cells.
(§2) The expression of DR5 on a panel of eight primary cultured synovial cells from patients with RA is compared with that on eight primary cultured synovial cells from patients with osteoarthritis (hereinafter referred to as “OA”). The eight human primary RA synovial cell cultures RA-1014, RA-1016, RA-1021, RA-512, RA-707, RA-811, RA-716, and RA-929 are kindly provided by Dr. M. Ohtsuki (Sankyo Co. Ltd., Tokyo, Japan) and cultured in DMEM supplemented with 10% FCS, penicillin, streptomycin, and glutamine. The […] OA synovial cell primary cell cultures are isolated from the synovial tissues of OA patients by a standard collagenase method and cultured under the same conditions. The passage number of all primary cells is under 10. The expression of DR5 is determined by FACs analysis as described in Example 5.

normal human hepatocytes = experiment: Viability of normal human hepatocytes (ATPLite); format: cell-based
Text: For 24-hour cell viability assays, fresh normal human hepatocytes in 96-well plates were purchased from In Vitro Technology (Baltimore, Md.). […] For 6-hour viability assays, normal hepatocytes or hepatocellular cancer cells are isolated from fresh surgical specimens collected from UAB Tissue Procurement Center. All reagents for isolation of human hepatocytes including hepatocytes perfusion buffer, digest medium, washing medium, and attachment medium were purchased from Gibco. The tissue slides are digested in the Hepatocyte Digest Medium at 37° C. with shaking (50 rpm) for one hour. The isolated hepatocytes are harvested by low speed centrifugation (50 g, 3 min), and washed with the Hepatocyte Washing Medium six times. Single cell suspension of hepatocytes are cultured in the Attachment Medium containing 10% FCS in 96-well Matrigel plates (BD) for six hours. Non-attached hepatocytes are removed by twice washing with pre-warmed attachment medium.

liver = experiment: Induction of hepatitis in vivo by tetracycline-inducible adenoviral vectors; design: species or system B6 mice; conditions: Ad/TRAIL inoculated mice; 10 μg soluble human TRAIL
Experimental: 8-10 week-old female B6 mice are intravenously injected with 10^9 pfu of Ad/hTRAIL with the equal number of Ad/Tet-on. Mice are fed with different concentrations of tetracycline in their drinking water immediately after inoculation of adenoviral vectors. Liver injury is determined by serum levels of AST using an AST diagnostic kit (Sigma). Expression of TRAIL is determined by Northern blot analysis.

Jurkat cells [1] = experiment: Jurkat cell viability (ATPLite, MTT, PI exclusion); format: cell-based, human; conditions: overnight, TRAIL plus crosslinker
Experimental: (§3) Cell viability is determined using (1) the ATPLite® kit according to the manufacturer's instructions (Packard Instruments, Meriden, Conn.); (2) the MTT Cell proliferation/viability kit (Sigma); or (3) PI staining of dead cells and analyzed by flow cytometry. At end of culture, cells are stained with 10 μg/ml PI and PI negative cells are gated as viable cells. For analysis of condensed nuclei of hepatocytes, cells are stained with 10 ng/ml Hoechst 33352 (Molecular Probes) and analyzed by flow cytometry.

RA synovial cells = experiment: Cell viability of primary cultured RA synovial cells; format: cell-based, human; conditions: high concentrations (>50 ng/ml)
Text: as §1, §2

Molt-4 = experiment: Apoptosis by ATPLite after overnight incubation; format: cell-based, human
Experimental: as §3

U87 = experiment: Apoptosis by ATPLite after overnight incubation; format: cell-based, human
Experimental: as §3

EB-3 = experiment: Apoptosis by ATPLite after overnight incubation; format: cell-based, human
Experimental: as §3

H-9 = experiment: Apoptosis by ATPLite after overnight incubation; format: cell-based, human
Experimental: as §3

SKW6.4 = experiment: Apoptosis by ATPLite after overnight incubation; format: cell-based, human
Experimental: as §3

CEM-6 = experiment: Apoptosis by ATPLite after overnight incubation; format: cell-based, human
Experimental: as §3

U937 = experiment: Apoptosis by ATPLite after overnight incubation; format: cell-based, human
Experimental: as §3

Daudi = experiment: Apoptosis by ATPLite after overnight incubation; format: cell-based, human
Experimental: as §3

U251-MG = experiment: Apoptosis by ATPLite after overnight incubation; format: cell-based, human
Experimental: as §3

Raji = experiment: Apoptosis by ATPLite after overnight incubation; format: cell-based, human
Experimental: as §3

primary B cells = experiment: Apoptosis by ATPLite after overnight incubation; format: cell-based, human
Experimental: as §3

Hs683 = experiment: Apoptosis by ATPLite after overnight incubation; format: cell-based, human
Experimental: as §3

Jurkat cells [2] = experiment: Apoptosis-inducing activity of humanized antibody on Jurkat cells (XTT); format: cell-based, human; conditions: 12 hours; serial 2-fold dilution from 100 ng/ml
Experimental: Jurkat cells cultured in RPMI1640 medium with 10% FCS (Gibco BRL) at 37° C. for 3 days in the presence of 5% CO2 are dispensed into each well of a 96-well microplate (Sumitomo Bakelite) at 50 μl per well. […] Each of the solutions of the expression products thus adjusted to 100 ng/ml is used to produce serial dilutions by repeating serial 2-fold dilution with RPMI1640 containing 10% FCS. […] After reacting at 37° C. for 12 hours, 50 μl of 25 μM PMS (phenazine methosulfate; Sigma Chemical Co.) containing 1 mg/ml XTT (2,3-bis [2-methoxy-4-nitro-5-sulfophenyl]-2H-tetrazolium-5-carboxyaniride inner salt; Sigma Chemical Co.) is added (final concentrations of 250 μg/ml for XTT and 5 μM for PMS). After incubating for 3 hours, the absorbance at 450 nm of each well is measured to calculate the cell viability by using the reduction ability of mitochondria as the index.
The viability of the cells in each well is calculated according to the following formula: Viability(%)=100×(a−b)/(c−b) wherein “a” is the measurement of a test well, “b” is the measurement of a well with no cells, and “c” is the measurement of a well with no antibody added.
Jurkat cells cultured in RPMI1640 medium with 10% FCS (Gibco BRL) at 37° C. for 3 days in the presence of 5% CO2 are dispensed into each well of a 96-well microplate (Sumitomo Bakelite) at 50 μl per well. […]

Cn1cc(C2=C(c3cn(CCCN)c4ccccc34)C(=O)NC2=O)c2ccccc21 [BisVIII, Bisindolylmaleimide VIII]
susceptibility of CLL B cells (CLL B cells): sensitive

COc1cccc2c1C(=O)c1c(O)c3c(c(O)c1C2=O)C[C@@](O)(C(=O)CO)C[C@@H]3O[C@H]1C[C@H](N)[C@H](O)[C@H](C)O1 [adriamycin]
effect on TRA-8-induced apoptosis (breast cancer lines; high doses of adriamycin): additive effect | effect on TRA-8-induced apoptosis (breast cancer lines; low doses of adriamycin, some TRA-8 resistant lines): synergistically enhance

IL-1b: proinflammatory cytokine
production/release of MMPs (MMP-1, 3, and 13): increased

TNF-α
production/release of MMPs (MMP-1, 3, and 13): increased

TRAIL: Soluble recombinant human TRAIL (aa residues 95 to 281) fused to a FLAG-tag, Alexis; used with anti-FLAG crosslinker
binding activity to DR4 (DR4): bound to DR4 | susceptibility to apoptosis (OA synovial cells): completely resistant | hepatocytes killed (normal human hepatocytes; 6-hour culture period, 500 ng/ml TRAIL): Over 20% | hepatocytes killed (normal human hepatocytes; end of 24-hour culture, 1 μg/ml, TRAIL plus crosslinker): more than 80% | liver injury after intravenous injection (liver): did not exhibit increased liver injury | susceptibility to apoptosis (Jurkat cells [1]): highly susceptible | cell death (RA synovial cells; RA929): ~100% | cell death (RA synovial cells; RA-716): ~100% | cell death (RA synovial cells; RA-811): ~100% | cell death (RA synovial cells; RA-1014): ~100% | production/release of MMPs (MMP-1, 3, and 13): not associated with increased release | susceptibility to apoptosis (Molt-4): partially susceptible | susceptibility to apoptosis (U87): exhibited sensitivity | susceptibility to apoptosis (EB-3): very susceptible | susceptibility to apoptosis (H-9): resistant | susceptibility to apoptosis (SKW6.4): very susceptible | susceptibility to apoptosis (CEM-6): highly susceptible | susceptibility to apoptosis (U937): partially susceptible | susceptibility to apoptosis (Daudi): much less susceptible | susceptibility to apoptosis (U251-MG): resistant | susceptibility to apoptosis (Raji): very susceptible | susceptibility to apoptosis (primary B cells): did not undergo apoptosis | susceptibility to apoptosis (Hs683): resistant

B1: humanized TRA-8: humanized TRA-8, cotransfection of pHB14-1 and pSR/M2-1: H2 type heavy chain (SEQ ID No. 31), LM2 light chain (SEQ ID No. 46) (antibody)
VH: EVMLVESGGGLVQPGGSLRLSCAASGFTFSSYVMSWVRQAPGKGLEWVATISSGGSYTYYPDSVKGRFTISRDNAKNTLYLQMNSLRAEDTAVYYCARRGDSMITTDYWGQGTLVTVSS
light: DIVMTQSPSSLSASVGDRVTITCKASQDVGTAVAWYQQKPGKAPKLLIYWASTRHTGVPSRFSGSGSGTDFTLTISSLQPEDFATYYCQQYSSYRTFGQGTKVEIKRTVAAPSVFIFPPSDEQLKSGTASVVCLLNNFYPREAKVQWKVDNALQSGNSQESVTEQDSKDSTYSLSSTLTLSKADYEKHKVYACEVTHQGLSSPVTKSFNRGEC
induction of apoptosis (Jurkat cells [2]): induce apoptosis

Source: patent publication US8715668B2, “Antibody selective for a tumor necrosis factor-related apoptosis-inducing ligand receptor DR5 and uses thereof” (The UAB Research Foundation, priority 2000, dated 2014)
